From ChEMBL document CHEMBL3132769, “Fragment growing to retain or alter the selectivity of anchored kinase hinge-binding fragments” (Medchemcomm, 2014)

Tests used:
Homo sapiens = organism: Homo sapiens; assay: Inhibition of human full length PKA expressed in baculovirus assessed as substrate phosphorylation using fluorescence-labelled peptides as substrate at 0.06 uM after 90 mins by microfluidic peptide phosphorylation assay
[1] = target: Tyrosine-protein kinase Lck (Homo sapiens) (UniProt P06239); assay: Inhibition of human full length LCK expressed in baculovirus assessed as substrate phosphorylation using fluorescence-labelled peptides as substrate at 0.2 uM after 90 mins by microfluidic peptide phosphorylation assay
Chain of Tyrosine-protein kinase Lck (Homo sapiens) (P06239 2-509 limits assumed): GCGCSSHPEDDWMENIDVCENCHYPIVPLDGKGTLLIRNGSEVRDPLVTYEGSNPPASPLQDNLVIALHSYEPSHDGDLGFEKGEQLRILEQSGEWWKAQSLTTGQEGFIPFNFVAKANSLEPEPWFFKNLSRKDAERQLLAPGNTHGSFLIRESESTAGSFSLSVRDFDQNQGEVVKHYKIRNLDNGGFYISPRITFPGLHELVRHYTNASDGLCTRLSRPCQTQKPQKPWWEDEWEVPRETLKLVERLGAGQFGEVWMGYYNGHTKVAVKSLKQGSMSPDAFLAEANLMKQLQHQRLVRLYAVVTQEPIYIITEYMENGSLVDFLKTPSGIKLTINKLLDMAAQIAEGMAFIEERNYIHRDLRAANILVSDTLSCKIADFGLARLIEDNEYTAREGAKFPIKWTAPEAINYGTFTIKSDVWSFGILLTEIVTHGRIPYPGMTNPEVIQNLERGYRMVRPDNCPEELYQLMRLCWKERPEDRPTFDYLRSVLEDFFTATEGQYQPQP

[2] = target: T1, Interleukin-1 receptor-associated kinase 4 (Homo sapiens) (UniProt Q9NWZ3); assay: Inhibition of human IRAK4 catalytic domain expressed in baculovirus assessed as substrate phosphorylation using fluorescence-labelled peptides as substrate at 0.2 uM after 90 mins by microfluidic peptide phosphorylation assay
T1 sequence (whole entry): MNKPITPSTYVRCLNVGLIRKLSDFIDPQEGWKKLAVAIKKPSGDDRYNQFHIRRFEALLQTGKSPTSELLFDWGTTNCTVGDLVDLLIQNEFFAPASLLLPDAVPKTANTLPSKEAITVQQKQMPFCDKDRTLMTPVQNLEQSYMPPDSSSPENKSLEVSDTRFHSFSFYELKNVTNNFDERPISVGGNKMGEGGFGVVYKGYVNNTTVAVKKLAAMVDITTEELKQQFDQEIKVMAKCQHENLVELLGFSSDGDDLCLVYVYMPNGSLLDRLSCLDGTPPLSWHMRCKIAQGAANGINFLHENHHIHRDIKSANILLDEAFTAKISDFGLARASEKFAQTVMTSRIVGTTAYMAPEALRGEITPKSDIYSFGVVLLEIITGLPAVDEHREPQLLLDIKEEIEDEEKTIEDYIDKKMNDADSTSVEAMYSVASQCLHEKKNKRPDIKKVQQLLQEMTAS

[3] = target: Insulin-like growth factor 1 receptor (Homo sapiens) (UniProt P08069); assay: Inhibition of human IGF1R catalytic domain expressed in baculovirus assessed as substrate phosphorylation using fluorescence-labelled peptides as substrate at […] after 90 mins by microfluidic peptide phosphorylation assay
[4] = target: Cyclin-dependent kinase 2 (Homo sapiens) (UniProt P24941); assay: Inhibition of human full length CDK2 expressed in baculovirus assessed as substrate phosphorylation using fluorescence-labelled peptides as substrate at […] after 90 mins by microfluidic peptide phosphorylation assay
[5] = target: Serine/threonine-protein kinase MARK2 (Homo sapiens) (UniProt Q7KZI7); assay: Inhibition of human full length MARK2 expressed in baculovirus assessed as substrate phosphorylation using fluorescence-labelled peptides as substrate at 9 uM after 90 mins by microfluidic peptide phosphorylation assay
[6] = target: Ribosomal protein S6 kinase alpha-4 (Homo sapiens) (UniProt O75676); assay: Inhibition of human full length MSK2 expressed in baculovirus assessed as substrate phosphorylation using fluorescence-labelled peptides as substrate at 9 uM after 90 mins by microfluidic peptide phosphorylation assay
Chain of Ribosomal protein S6 kinase alpha-4 (Homo sapiens) (O75676 whole entry, looked up): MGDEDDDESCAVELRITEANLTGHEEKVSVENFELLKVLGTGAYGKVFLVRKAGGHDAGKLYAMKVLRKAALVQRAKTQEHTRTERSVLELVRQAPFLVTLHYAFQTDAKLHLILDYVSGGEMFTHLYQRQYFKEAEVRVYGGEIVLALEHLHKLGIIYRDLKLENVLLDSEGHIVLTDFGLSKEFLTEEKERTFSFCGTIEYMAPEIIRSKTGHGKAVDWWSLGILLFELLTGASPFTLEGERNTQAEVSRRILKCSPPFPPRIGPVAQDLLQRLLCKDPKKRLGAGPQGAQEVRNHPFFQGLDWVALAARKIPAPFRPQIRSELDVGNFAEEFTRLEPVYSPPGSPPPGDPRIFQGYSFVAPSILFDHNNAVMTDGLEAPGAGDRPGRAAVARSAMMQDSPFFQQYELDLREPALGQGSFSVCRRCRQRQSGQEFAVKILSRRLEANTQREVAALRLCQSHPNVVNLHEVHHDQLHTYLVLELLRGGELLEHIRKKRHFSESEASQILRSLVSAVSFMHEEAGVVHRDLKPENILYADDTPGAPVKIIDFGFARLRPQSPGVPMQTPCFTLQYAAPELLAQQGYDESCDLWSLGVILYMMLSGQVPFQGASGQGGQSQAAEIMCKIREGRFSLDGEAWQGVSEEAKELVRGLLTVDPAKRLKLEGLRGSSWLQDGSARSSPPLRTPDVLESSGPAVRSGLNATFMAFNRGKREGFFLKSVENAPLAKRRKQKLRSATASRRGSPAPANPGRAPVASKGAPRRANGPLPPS

[7] = target: Tyrosine-protein kinase BTK (Homo sapiens) (UniProt Q06187); assay: Inhibition of human full length BTK expressed in baculovirus assessed as substrate phosphorylation using fluorescence-labelled peptides as substrate at 9 uM after 90 mins by microfluidic peptide phosphorylation assay
Chain of Tyrosine-protein kinase BTK (Homo sapiens) (Q06187 whole entry, the tested form may be a part): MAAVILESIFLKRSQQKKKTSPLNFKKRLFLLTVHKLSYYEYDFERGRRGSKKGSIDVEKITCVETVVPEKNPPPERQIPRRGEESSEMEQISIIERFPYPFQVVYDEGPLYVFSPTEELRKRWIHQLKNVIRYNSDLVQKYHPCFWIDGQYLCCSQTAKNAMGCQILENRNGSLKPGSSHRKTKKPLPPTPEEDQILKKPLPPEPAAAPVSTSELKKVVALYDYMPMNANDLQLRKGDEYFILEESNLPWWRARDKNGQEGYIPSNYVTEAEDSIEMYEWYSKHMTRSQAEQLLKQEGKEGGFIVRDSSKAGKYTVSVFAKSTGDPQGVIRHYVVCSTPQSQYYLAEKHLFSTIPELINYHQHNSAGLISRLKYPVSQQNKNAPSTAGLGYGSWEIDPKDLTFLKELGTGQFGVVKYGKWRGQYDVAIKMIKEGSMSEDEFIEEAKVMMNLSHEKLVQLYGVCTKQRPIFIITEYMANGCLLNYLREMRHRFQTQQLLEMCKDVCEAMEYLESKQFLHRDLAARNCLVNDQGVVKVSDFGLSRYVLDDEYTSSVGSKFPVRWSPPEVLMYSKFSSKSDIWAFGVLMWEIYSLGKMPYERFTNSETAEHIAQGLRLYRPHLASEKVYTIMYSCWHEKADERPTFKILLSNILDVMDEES

[8] = target: Protein kinase C beta type (Homo sapiens) (UniProt P05771); assay: Inhibition of human truncated PKC beta1 expressed in baculovirus assessed as substrate phosphorylation using fluorescence-labelled peptides as substrate at 70 uM after 90 mins by microfluidic peptide phosphorylation assay
Chain of Protein kinase C beta type (Homo sapiens) (P05771 2-671 limits assumed): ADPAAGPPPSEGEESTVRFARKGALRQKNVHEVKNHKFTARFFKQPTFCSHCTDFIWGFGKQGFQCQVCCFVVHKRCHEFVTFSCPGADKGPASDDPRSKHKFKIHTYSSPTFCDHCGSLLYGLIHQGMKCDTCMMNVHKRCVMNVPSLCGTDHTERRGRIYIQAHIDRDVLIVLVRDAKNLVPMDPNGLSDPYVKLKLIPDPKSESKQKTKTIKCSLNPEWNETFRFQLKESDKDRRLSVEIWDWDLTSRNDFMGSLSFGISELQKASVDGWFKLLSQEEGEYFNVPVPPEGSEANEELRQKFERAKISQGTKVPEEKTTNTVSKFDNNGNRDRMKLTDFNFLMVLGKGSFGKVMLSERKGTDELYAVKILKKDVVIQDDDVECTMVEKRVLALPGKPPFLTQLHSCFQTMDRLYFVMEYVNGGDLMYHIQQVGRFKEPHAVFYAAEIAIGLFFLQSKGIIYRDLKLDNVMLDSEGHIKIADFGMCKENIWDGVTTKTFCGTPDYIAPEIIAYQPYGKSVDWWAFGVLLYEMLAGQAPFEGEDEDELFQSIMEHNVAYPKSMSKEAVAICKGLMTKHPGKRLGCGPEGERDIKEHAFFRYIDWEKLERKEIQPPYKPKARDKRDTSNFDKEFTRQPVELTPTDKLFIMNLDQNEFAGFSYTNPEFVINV

[9] = target: T2, Mitogen-activated protein kinase 12 (Homo sapiens) (UniProt P53778); assay: Inhibition of human full length p38 gamma expressed in Escherichia coli cell assessed as substrate phosphorylation using fluorescence-labelled peptides as substrate at 95 uM after 90 mins by microfluidic peptide phosphorylation assay
T2 sequence (whole entry): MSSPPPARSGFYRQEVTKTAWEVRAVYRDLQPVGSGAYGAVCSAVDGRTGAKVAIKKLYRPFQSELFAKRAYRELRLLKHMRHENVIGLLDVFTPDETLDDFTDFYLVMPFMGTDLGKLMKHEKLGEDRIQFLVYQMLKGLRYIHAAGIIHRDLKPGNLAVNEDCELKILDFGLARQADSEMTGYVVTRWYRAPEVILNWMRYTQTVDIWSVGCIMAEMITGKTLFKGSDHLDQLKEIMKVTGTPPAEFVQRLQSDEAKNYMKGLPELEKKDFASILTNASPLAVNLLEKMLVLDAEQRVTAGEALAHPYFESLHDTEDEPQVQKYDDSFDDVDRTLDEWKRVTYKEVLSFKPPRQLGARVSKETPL

[10] = target: Ribosomal protein S6 kinase alpha-3 (Homo sapiens) (UniProt P51812); assay: Inhibition of human full length RSK2 expressed in baculovirus assessed as substrate phosphorylation using fluorescence-labelled peptides as substrate at 95 uM after 90 mins by microfluidic peptide phosphorylation assay
Chain of Ribosomal protein S6 kinase alpha-3 (Homo sapiens) (P51812 whole entry, the tested form may be a part): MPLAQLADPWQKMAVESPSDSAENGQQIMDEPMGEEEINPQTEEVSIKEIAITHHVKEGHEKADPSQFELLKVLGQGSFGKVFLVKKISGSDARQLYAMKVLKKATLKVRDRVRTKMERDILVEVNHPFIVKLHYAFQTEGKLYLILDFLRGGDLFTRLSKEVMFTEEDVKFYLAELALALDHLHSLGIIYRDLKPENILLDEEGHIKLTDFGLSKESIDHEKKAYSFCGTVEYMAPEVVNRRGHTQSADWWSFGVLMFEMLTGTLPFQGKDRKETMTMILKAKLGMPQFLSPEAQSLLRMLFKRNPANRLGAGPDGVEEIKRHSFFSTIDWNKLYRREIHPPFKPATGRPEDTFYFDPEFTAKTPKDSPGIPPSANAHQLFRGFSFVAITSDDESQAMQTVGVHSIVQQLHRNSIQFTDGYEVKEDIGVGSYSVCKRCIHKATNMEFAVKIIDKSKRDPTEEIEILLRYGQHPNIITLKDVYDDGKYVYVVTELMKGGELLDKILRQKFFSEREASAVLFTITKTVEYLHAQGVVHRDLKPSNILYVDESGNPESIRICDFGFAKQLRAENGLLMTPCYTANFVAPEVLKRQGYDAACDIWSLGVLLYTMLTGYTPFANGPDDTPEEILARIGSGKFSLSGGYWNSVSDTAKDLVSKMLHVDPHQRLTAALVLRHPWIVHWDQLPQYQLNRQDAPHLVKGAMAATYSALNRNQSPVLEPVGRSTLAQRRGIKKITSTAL

[11] = target: T3, Serine/threonine-protein kinase Sgk1 (Homo sapiens) (UniProt O00141); assay: Inhibition of human truncated SGK1 expressed in baculovirus assessed as substrate phosphorylation using fluorescence-labelled peptides as substrate at 95 uM after 90 mins by microfluidic peptide phosphorylation assay
T3 sequence (whole entry): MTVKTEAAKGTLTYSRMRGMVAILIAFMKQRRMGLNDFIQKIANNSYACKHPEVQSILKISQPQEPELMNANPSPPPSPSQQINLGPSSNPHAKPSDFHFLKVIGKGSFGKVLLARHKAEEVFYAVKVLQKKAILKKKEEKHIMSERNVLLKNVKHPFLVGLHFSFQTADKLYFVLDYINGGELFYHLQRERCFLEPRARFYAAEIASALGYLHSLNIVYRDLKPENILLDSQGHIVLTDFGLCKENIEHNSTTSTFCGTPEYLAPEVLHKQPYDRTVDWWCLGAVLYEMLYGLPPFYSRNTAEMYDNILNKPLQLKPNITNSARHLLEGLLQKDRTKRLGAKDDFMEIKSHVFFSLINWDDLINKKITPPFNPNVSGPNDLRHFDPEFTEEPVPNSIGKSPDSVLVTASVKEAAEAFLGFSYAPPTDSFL

[12] = target: Ribosomal protein S6 kinase alpha-1 (Homo sapiens) (UniProt Q15418); assay: Inhibition of human full length RSK1 expressed in baculovirus assessed as substrate phosphorylation using fluorescence-labelled peptides as substrate at 8 uM after 90 mins by microfluidic peptide phosphorylation assay
Chain of Ribosomal protein S6 kinase alpha-1 (Homo sapiens) (Q15418 whole entry): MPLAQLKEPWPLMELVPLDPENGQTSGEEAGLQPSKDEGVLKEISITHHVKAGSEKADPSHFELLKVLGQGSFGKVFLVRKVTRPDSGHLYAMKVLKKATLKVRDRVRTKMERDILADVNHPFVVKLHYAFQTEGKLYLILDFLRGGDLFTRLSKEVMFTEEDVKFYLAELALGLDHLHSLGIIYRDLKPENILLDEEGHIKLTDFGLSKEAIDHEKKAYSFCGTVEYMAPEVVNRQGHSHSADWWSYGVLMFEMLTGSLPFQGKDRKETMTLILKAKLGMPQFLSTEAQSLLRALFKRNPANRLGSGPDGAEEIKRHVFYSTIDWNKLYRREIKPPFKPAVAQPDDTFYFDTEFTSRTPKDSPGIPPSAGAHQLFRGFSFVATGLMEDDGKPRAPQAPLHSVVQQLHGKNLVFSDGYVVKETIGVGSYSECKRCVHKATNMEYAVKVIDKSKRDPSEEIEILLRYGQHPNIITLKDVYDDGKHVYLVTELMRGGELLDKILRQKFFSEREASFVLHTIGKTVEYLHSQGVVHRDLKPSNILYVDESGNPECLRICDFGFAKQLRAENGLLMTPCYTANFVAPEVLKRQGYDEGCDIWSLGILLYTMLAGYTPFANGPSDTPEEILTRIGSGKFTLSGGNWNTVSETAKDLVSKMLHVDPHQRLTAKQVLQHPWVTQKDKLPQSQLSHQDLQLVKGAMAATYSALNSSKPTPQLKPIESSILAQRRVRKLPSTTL

[13] = target: Protein kinase C beta type (Homo sapiens) (UniProt P05771); assay: Inhibition of human full length PKC beta2 expressed in baculovirus assessed as substrate phosphorylation using fluorescence-labelled peptides as substrate at 8 uM after 90 mins by microfluidic peptide phosphorylation assay
[14] = target: Fibroblast growth factor receptor 2 (Homo sapiens) (UniProt P21802); assay: Inhibition of human FGFR2 catalytic domain expressed in baculovirus assessed as substrate phosphorylation using fluorescence-labelled peptides as substrate at 8 uM after 90 mins by microfluidic peptide phosphorylation assay
Chain of Fibroblast growth factor receptor 2 (Homo sapiens) (P21802 22-821 limits assumed): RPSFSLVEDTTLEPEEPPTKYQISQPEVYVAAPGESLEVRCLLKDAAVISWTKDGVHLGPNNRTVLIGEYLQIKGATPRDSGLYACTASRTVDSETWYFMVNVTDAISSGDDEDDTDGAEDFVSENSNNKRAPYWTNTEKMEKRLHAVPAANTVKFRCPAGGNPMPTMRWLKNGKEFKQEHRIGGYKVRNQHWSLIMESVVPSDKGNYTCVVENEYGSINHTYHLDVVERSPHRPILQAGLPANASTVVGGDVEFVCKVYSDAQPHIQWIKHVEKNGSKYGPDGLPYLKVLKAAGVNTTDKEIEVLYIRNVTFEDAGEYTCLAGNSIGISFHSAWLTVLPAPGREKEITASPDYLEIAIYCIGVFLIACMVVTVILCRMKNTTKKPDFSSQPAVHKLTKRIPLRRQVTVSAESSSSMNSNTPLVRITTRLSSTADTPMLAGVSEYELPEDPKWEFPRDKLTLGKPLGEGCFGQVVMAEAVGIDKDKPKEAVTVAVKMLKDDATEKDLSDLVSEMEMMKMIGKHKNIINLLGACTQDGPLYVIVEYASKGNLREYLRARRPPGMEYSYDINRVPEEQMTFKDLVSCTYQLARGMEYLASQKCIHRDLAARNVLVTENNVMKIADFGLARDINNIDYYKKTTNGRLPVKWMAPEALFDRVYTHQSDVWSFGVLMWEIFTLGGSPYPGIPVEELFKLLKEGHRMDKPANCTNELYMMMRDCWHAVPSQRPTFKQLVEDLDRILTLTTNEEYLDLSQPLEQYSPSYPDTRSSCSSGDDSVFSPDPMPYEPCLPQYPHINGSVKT

[15] = target: Insulin receptor (Homo sapiens) (UniProt P06213); assay: Inhibition of human INSR catalytic domain expressed in baculovirus assessed as substrate phosphorylation using fluorescence-labelled peptides as substrate at 8 uM after 90 mins by microfluidic peptide phosphorylation assay
[16] = target: Tyrosine-protein kinase ABL1 (Homo sapiens) (UniProt P00519); assay: Inhibition of human full-length ABL expressed in baculovirus assessed as substrate phosphorylation using fluorescence-labelled peptides as substrate at 1000 uM after 90 mins by microfluidic peptide phosphorylation assay

## NC1(Cc2ccc(Cl)cc2)CCN(c2ncnc3[nH]ccc23)CC1
Homo sapiens
  inhibition: 17%

## Clc1ccc(C2(c3ccc(-c4ncnc5[nH]cnc45)cc3)CCNCC2)cc1
[1]
  inhibition: 35%
[2]
  inhibition: 13%

## COC(=O)c1cnc(Nc2cnc(C#N)cn2)cc1NCC1CCNCC1
[3]
  inhibition: 3.5%
[4]
  inhibition: 6%

## NCC1CN(c2ncnc3[nH]c4cnccc4c23)CCO1 (configuration not stated)
[5]
  inhibition: 73%
[6]
  inhibition: 52%
[7]
  inhibition: 11%

## CNCc1ccc(-c2ncnc3[nH]cnc23)cc1
[8]
  inhibition: 73.5%

## NCCc1ccc(-c2ncnc3[nH]cnc23)cc1
[9]
  inhibition: 13%
[10]
  inhibition: 87.5%
[11]
  inhibition: 52.5%

## NCC1CCN(c2ncnc3[nH]ccc23)CC1
[12]
  inhibition: 11.5%
[13]
  inhibition: 88.5%
[14]
  inhibition: 29.5%
[15]
  inhibition: 16.5%

## c1cnc2[nH]ccc2c1
[16]
  inhibition: 42%
